# From patent US11046691B1 (IDEAYA BIOSCIENCES, INC., priority 2018, dated 2021)
# Biological target: hMAT2A (Homo sapiens (Human), UniProt P31153)
# Test: Phosphate Sensor Fluorescence Assay (MAT2A enzyme inhibition)
# Type: biochemical
# Details: L-methionine 500 uM, ATP 500 uM, class symbols
# Description: The ability of the compound of present disclosure to inhibit MAT2A enzyme was determined using the Malachite Green or Phosphate Sensor Fluorescence Assay described below.
# B. Phosphate Sensor Fluorescence Assay
# MAT2A enzyme is incubated with a test compound in DMSO or DMSO and its substrates (L-methionine and ATP) in a microtiter plate. The enzymatic reaction is stopped by the addition of Working Phosphate Sensor Mixture. The plate is analyzed for fluorescence at 450 nm.
# Assay Buffer: 50 mM Tris, pH 7.5/50 mM KCl/10 mM MgCl2/0.01% Brij-35/1 mM DTT/0.1% BGG/40 nM PNP/6 uM 7-MEG
# L-methionine: 500 uM before the addition of Working Phosphate Sensor Mixture
# ATP: 500 uM before the addition of Working Phosphate Sensor Mixture
# Test compounds or DMSO were added to the appropriate well suing D300e digital dispenser. 5 μl/well of Assay Buffer was added to the wells corresponding to the negative control and 5 μl/well of MAT2A was added to all the wells except for those corresponding to the negative control. After incubating the plate at room temperature for 15 minutes, 5 μl/well of the 1 mM L-methionine/1 mM ATP mixture was added to all wells. The plate was centrifuged at 1000 rpm for 1 minute and then incubated at room temperature for 1 hour. 5 μl of the Working Phosphate Sensor Mixture was added to all wells and the plate was centrifuged at 1000 rpm for 1 minute. The plate was read for fluorescence at 450 nm after exciting at 430 nm.
# Percent inhibition was calculated in Chemical and Biological Information System (CBIS), (ChemInnovation Software Inc.). Curves were fitted by CBIS as % inhibition vs. log [compound concentration] using a 4-parameter inhibition model. Fit=(A+((B−A)/(1+((C/x)^D)))) Res=(y−fit)
# hMAT2A, sequence (P31153 whole entry): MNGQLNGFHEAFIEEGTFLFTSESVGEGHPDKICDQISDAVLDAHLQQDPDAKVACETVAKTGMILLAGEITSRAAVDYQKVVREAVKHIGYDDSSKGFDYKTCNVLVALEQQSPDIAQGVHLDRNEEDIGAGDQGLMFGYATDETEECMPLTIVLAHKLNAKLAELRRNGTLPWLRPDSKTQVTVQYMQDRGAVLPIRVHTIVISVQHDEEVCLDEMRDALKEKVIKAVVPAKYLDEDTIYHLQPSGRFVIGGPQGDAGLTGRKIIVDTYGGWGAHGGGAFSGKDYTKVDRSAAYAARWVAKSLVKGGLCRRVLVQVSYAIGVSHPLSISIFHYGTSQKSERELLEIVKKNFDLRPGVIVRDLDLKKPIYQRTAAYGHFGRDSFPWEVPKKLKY
row,Structure (SMILES),IC50 [nM]
1,"CNc1nc(=O)n(-c2cccc(C(=O)O)c2)c2cc(Cl)ccc12 [Example 133, 3-[7-chloro-4-(methylamino)-2-oxo-hydroquinazolin-1-yl]benzoic acid]",< 200
2,"CNc1nc(=O)n(-c2cccc(C(N)=O)c2)c2cc(Cl)ccc12 [Example 134, 3-[7-chloro-4-(methylamino)-2-oxo-hydroquinazolin-1-yl]benzamide]",< 200
3,"O=c1nc(NCC(F)(F)F)c2ccc(C(F)(F)F)nc2n1-c1ccccc1 [Example 136, 1-phenyl-4-((2,2,2-trifluoroethyl)amino)-7-(trifluoromethyl)pyrido[2,3-d]-pyrimidin-2(1H)-one]",< 200
4,"O=c1nc(NCC(F)F)c2ccc(C(F)(F)F)nc2n1-c1ccccc1 [Example 137, 4-((2,2-difluoroethyl)amino)-1-phenyl-7-(trifluoromethyl)pyrido[2,3-d]pyrimidin-2(1H)-one]",< 200
5,"Nc1nc(=O)n(-c2ccccc2)c2nc(C(F)(F)F)ccc12 [Example 138, 4-amino-1-phenyl-7-(trifluoromethyl)-hydropyridino[2,3-d]pyrimidin-2-one]",< 200
6,"N#Cc1cccc(-n2c(=O)nc(N3CC(O)C3)c3ccc(C(F)(F)F)cc32)c1 [Example 139, 3-[4-(3-hydroxyazetidinyl)-2-oxo-7-(trifluoromethyl)hydroquinazolinyl]-benzenecarbonitrile]",< 200
7,"N#Cc1cccc(-n2c(=O)nc(N)c3ccc(C(F)(F)F)cc32)c1 [Example 140, 3-[4-amino-2-oxo-7-(trifluoromethyl)-hydroquinazolinyl]benzenecarbonitrile]",< 200
8,N#Cc1cccc(-n2c(=O)nc(N3CC[C@@H](O)C3)c3ccc(C(F)(F)F)cc32)c1 [Example 141],< 200
9,"CNc1nc(=O)n(-c2cccc(C#N)c2)c2cc(C(F)(F)F)ccc12 [Example 142, 3[4-(methylamino)-2-oxo-7-(trifluoro-methyl)hydroquinazolinyl]benzene-carbonitrile]",< 200
10,"CNc1nc(=O)n(-c2ccccc2)c2cc(C(F)F)ccc12 [Example 143, 7-(difluoromethyl)-4-(methylamino)-1-phenylhydroquinazolin-2-one]",< 200
11,"COc1nc(=O)n(-c2ccccc2)c2cc(C(F)(F)F)ccc12 [Example 144, 4-methoxy-1-phenyl-7-(trifluoromethyl)-hydroquinazolin-2-one]",200 to 500
12,"O=c1nc(N2CC[C@@H](O)C2)c2ccc(C(F)(F)F)cc2n1-c1ccccc1 [Example 145, 4-((3R)-3-hydroxypyrrolidinyl)-1-phenyl-7-(trifluoromethyl)hydro-quinazolin-2-one]",< 200
13,"Nc1nc(=O)n(-c2ccccc2)c2cc(C(F)(F)F)ccc12 [Example 146, 4-amino-1-phenyl-7-(trifluoromethyl)-hydroquinazolin-2-one]",< 200
14,"Cc1ccccc1-n1c(=O)[nH]c(=O)c2ccc(C(F)(F)F)cc21 [Example 147, 1-(2-methylphenyl)-7-(trifluoromethyl)-1,3-dihydroquinazoline-2,4-dione]",< 200
15,"Nc1nc(=O)n(-c2ccccc2Br)c2cc(Cl)ccc12 [Example 149, 4-amino-1-(2-bromophenyl)-7-chloro-hydroquinazolin-2-one]",< 200
16,"COc1ccccc1-n1c(=O)nc(N2CC[C@@H](O)C2)c2ccc(Cl)cc21 [Example 151, 4-((3R)-3-hydroxypyrrolidin-1-yl)-7-chloro-1-(2-methoxyphenyl)hydro-quinazolin-2-one]",< 200

row,Structure (SMILES),IC50 [nM]
1,"CNc1nc(=O)n(-c2cccc(C#N)c2)c2cc(Cl)ccc12 [Example 155, 3-[7-chloro-4-(methylamino)-2-oxo-hydroquinazolinyl]benzenecarbonitrile]",200 to 500
2,"O=C(O)c1cccc(-n2c(=O)[nH]c(=O)c3ccc(Cl)cc32)c1 [Example 156, 3-(7-chloro-4-hydroxy-2-oxohydro-quinazolinyl)benzoic acid]",1000 to 10000
3,"CNc1nc(=O)n(-c2cccc(O)c2C)c2cc(Cl)ccc12 [Example 157, 7-chloro-1-(3-hydroxy-2-methylphenyl)-4-(methylamino)hydroquinazolin-2-one]",< 200
4,"CN(C)C(=O)C1CN(c2nc(=O)n(-c3ccccc3)c3cc(Cl)ccc23)C1 [Example 159, [1-(7-chloro-2-oxo-1-phenylhydro-quinazolin-4-yl)azetidin-3-yl]-N,N-dimethylcarboxamide]",< 200
5,"CNc1nc(=O)n(-c2ccccc2)c2cc(CCl)ccc12 [Example 160, 7-(chloromethyl)-4-(methylamino)-1-phenylhydroquinazolin-2-one]",< 200
6,"O=c1nc(N2CC(O)C2)c2ccc(C(F)(F)F)nc2n1-c1ccccc1Cl [Example 161, 1-(2-chlorophenyl)-4-(3-hydroxy-azetidinyl)-7-(trifluoromethyl)pyrido-[2,3-d]pyrimidin-2(1H)-one]",< 200
7,"N#Cc1cccc(-n2c(=O)nc(N3CC(O)C3)c3ccc(C(F)(F)F)nc32)c1 [Example 162, 3-(4-(3-hydroxyazetidin-1-yl)-2-oxo-7-(trifluoromethyl)pyrido[2,3-d]pyrimidin-1(2H)-yl)benzonitrile]",< 200
8,"Nc1nc(=O)n(-c2ccccc2)c2cc(Br)ccc12 [Example 163, 4-amino-7-bromo-1-phenylhydro-quinazolin-2-one]",< 200
9,O=c1nc(N2CC(O)C2)c2ccc(C(F)(F)F)cc2n1-c1ccccc1 [Example 164],< 200
10,Cc1ccccc1-n1c(=O)nc(N2CC(O)C2)c2ccc(C(F)(F)F)nc21 [Example 165],< 200
11,"O=c1[nH]c(=O)n(-c2ccccc2)c2cc(C(F)F)ccc12 [Example 166, 7-(difluoromethyl)-1-phenyl-1,3-dihydroquinazoline-2,4-dione]",200 to 500
12,"Nc1nc(=O)n(-c2ccccc2Cl)c2nc(C(F)(F)F)ccc12 [Example 167, 4-amino-1-(2-chlorophenyl)-7-(trifluoro-methyl)pyrido[2,3-d]pyrimidin-2(1H)-one]",< 200
13,"N#Cc1cccc(-n2c(=O)nc(N)c3ccc(C(F)(F)F)nc32)c1 [Example 168, 3-(4-amino-2-oxo-7-(trifluoromethyl)-pyrido[2,3-d]pyrimidin-1(2H)-yl)-benzonitrile]",< 200
14,"Cc1ccccc1-n1c(=O)nc(N)c2ccc(C(F)(F)F)nc21 [Example 169, 4-amino-1-(2-methylphenyl)-7-(trifluoromethyl)pyrido[2,3-d]pyrimidin-2(1H)-one]",< 200
15,"O=c1nc(N2CC[C@@H](O)C2)c2ccc(C(F)(F)F)nc2n1-c1ccccc1 [Example 170, (R)-4-(3-hydroxypyrrolidin-1-yl)-1-phenyl-7-(trifluoromethyl)pyrido[2,3-d]-pyrimidin-2(1H)-one]",< 200
16,"O=c1nc(N2CC(O)C2)c2ccc(C(F)(F)F)nc2n1-c1ccccc1 [Example 171, 4-(3-hydroxyazetidin-1-yl)-1-phenyl-7-(trifluoromethyl)pyrido[2,3-d]pyrimidin-2(1H)-one]",< 200

# Same assay, conditions: L-methionine 500 uM, ATP 500 uM, numeric bound
row,Structure (SMILES),IC50 [nM]
1,"CNc1nc(=O)n(-c2ccccc2)c2cc(Cl)cc(OC3CN(C(=O)OC(C)(C)C)C3)c12 [Example 132, tert-butyl 3-[7-chloro-4-(methylamino)-2-oxo-1-phenylhydroquinazolin-5-yl-oxy]azetidinecarboxylate]",> 10000
